Source: patent US20260364184A1, “COMPOUND BASED ON OXOISOINDOLINYL-SUBSTITUTED TETRAHYDROPYRIMIDINE-DIONE AND USE THEREOF” (GLUETACS THERAPEUTICS (SHANGHAI) CO., LTD., priority 2023, published 2026)

Assays:
IRAK4 = target: T1, IRAK4 (Homo sapiens, UniProt Q9NWZ3); assay: Western blot degradation of IRAK4; type: cell-based; details: hPBMC Cell; 24 hours
T1 construct: expression of target proteins in cells; endogenous in cells
T1 sequence (Q9NWZ3 1-460): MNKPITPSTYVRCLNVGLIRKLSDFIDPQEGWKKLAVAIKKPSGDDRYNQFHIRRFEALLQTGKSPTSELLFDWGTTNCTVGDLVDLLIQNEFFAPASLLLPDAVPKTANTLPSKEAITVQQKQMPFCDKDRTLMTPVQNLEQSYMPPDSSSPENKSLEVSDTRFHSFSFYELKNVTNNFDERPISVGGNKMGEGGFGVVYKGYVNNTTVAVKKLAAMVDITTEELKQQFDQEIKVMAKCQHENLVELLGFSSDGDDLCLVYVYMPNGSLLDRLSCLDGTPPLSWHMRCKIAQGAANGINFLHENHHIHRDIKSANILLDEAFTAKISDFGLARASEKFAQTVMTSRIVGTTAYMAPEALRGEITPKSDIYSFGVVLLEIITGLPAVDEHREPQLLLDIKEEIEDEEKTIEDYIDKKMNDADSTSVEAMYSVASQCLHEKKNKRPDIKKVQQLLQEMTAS
Procedure, shortened: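 Cells treated with compound, lysed, and target protein detected by Western blot (SDS-PAGE, nitrocellulose transfer). DC50 taken as the concentration giving band grayscale half that of DMSO control, estimated by concentration-response fitting; remaining protein (%) from target band normalised to internal control band; degradation (%) = 1 − remaining.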

[1] = target: T2, human Cereblon WT GST-tagged protein (CRBN) (Homo sapiens, UniProt Q96SW2); assay: CRBN binding by HTRF (Cereblon binding kit); details: for inhibition at 0.5 µM: read-out: Inhibition Rate at 0.5 μM (%); for inhibition at 2 µM: read-out: Inhibition Rate at 2 μM (%)
T2 construct: purchased CISBIO 64BDCRBNPEH
T2 sequence (Q96SW2 whole entry): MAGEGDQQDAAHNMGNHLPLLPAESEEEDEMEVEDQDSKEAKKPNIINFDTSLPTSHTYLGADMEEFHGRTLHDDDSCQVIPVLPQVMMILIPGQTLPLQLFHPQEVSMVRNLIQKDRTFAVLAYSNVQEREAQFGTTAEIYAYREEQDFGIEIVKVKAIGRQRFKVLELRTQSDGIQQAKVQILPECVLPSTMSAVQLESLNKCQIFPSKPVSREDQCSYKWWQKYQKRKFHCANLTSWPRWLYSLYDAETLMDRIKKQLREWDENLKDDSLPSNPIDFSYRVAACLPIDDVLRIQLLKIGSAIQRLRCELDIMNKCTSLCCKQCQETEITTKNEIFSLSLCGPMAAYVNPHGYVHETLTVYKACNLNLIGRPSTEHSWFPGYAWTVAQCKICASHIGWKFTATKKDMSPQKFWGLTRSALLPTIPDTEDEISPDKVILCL
Procedure, shortened: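 GST-tagged human Cereblon WT was incubated 3 h at room temperature with compound, thalidomide-Re tracer and Eu anti-GST antibody. Final compound concentrations were 10 to 0.00064 µM (7 points) or 2 and 0.5 µM. Inhibition rate was calculated from HTRF 665/620 nm ratios versus solvent and blank controls.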

| SMILES | Degradation of substrate protein IRAK4 (substrate protein remaining %) (IRAK4) | Inhibition Rate at 0.5 μM (%) [1] | Inhibition Rate at 2 μM (%) [1] | inhibition at 0.5 µM [1] | inhibition at 2 µM [1] |
| --- | --- | --- | --- | --- | --- |
| O=C1CCN(N2Cc3cc(CN4CCC(n5cc(NC(=O)c6coc(-c7ccnc(NCC8CC8)c7)n6)c(C(F)F)n5)CC4)ccc3C2=O)C(=O)N1 [GT-04951, 2-(2-((cyclopropylmethyl)amino)pyridin-4-yl)-N-(3-(difluoromethyl)-1-(1-((2-(2,4-dioxotetrahydropyrimidin-1(2H)-yl)-1-oxoisoindolin-5-yl)methyl)piperidin-4-yl)-1H-pyrazol-4-yl) oxazole-4-carboxamide] | A (0%≤substrate protein remaining %≤80%) | a3 (30% < a3 ≤ 40%) | a6 (60% < a6 ≤ 80%) | – | – |
| O=C1CCN(N2Cc3cc(CN4CCC(n5cc(NC(=O)c6cnn7ccc(N8C[C@H]9C[C@@H]8CO9)nc67)c(C(F)F)n5)CC4)ccc3C2=O)C(=O)N1 [GT-05028, 5-((1R,4R)-2-oxa-5-azabicyclo[2.2.1]heptan-5-yl)-N-(3-(difluoromethyl)-1-(1-((2-(2,4-dioxotetrahydropyrimidin-1(2H)-yl)-1-oxoisoindolin-5-yl)methyl)piperidin-4-yl)-1H-pyrazol-4-yl)pyrazolo[1,5-a]pyrimidine-3-carboxamide] | A (0%≤substrate protein remaining %≤80%) | a2 (20% < a2 ≤ 30%) | a6 (60% < a6 ≤ 80%) | – | – |
| N#Cc1ccc(O[C@H]2CC[C@H](NC(=O)c3ccc(N4CCC(CN5C[C@@H]6C[C@H]5CN6c5ccc6c(c5)C(=O)N(N5CCC(=O)NC5=O)C6=O)CC4)nn3)CC2)cc1Cl [GT-05226, N-((1r,4r)-4-(3-chloro-4-cyanophenoxy)cyclohexyl)-6-(4-(((1S,4S)-5-(2-(2,4-dioxotetrahydropyrimidin-1(2H)-yl)-1,3-dioxoisoindolin-5-yl)-2,5-diazabicyclo[2.2.1]heptan-2-yl)methyl)piperidin-1-yl)pyridazine-3-carboxamide] | – | – | – | 30 to 40% | 30 to 40% |
| O=C1CCN(N2C(=O)c3ccc(N4C5CC4CN(C[C@H]4CC[C@H](n6cc(NC(=O)c7cnn8ccc(N9C[C@H]%10C[C@@H]9CO%10)nc78)c(C(F)F)n6)CC4)C5)cc3C2=O)C(=O)N1 [GT-05242, 5-((1R,4R)-2-oxa-5-azabicyclo[2.2.1]heptan-5-yl)-N-(3-(difluoromethyl)-1-((1r,4R)-4-((6-(2-(2,4-dioxotetrahydropyrimidin-1(2H)-yl)-1,3-dioxoisoindolin-5-yl)-3,6-diazabicyclo[3.1.1]heptan-3-yl)methyl)cyclohexyl)-1H-pyrazol-4-yl)pyrazolo[1,5-a]pyrimidine-3-carboxamide] | A (0%≤substrate protein remaining %≤80%) | – | – | 30 to 40% | 53 to 60% |
| O=C1CCN(N2C(=O)c3cccc(N4CCC(CN5CCC(n6cc(NC(=O)c7cnn8ccc(N9C[C@H]%10C[C@@H]9CO%10)nc78)c(C(F)F)n6)CC5)CC4)c3C2=O)C(=O)N1 [GT-05285, 5-((1R,4R)-2-oxa-5-azabicyclo[2.2.1]heptan-5-yl)-N-(3-(difluoromethyl)-1-(1-((1-(2-(2,4-dioxotetrahydropyrimidin-1(2H)-yl)-1,3-dioxoisoindolin-4-yl)piperidin-4-yl)methyl)piperidin-4-yl)-1H-pyrazol-4-yl)pyrazolo[1,5-a]pyrimidine-3-carboxamide] | A (0%≤substrate protein remaining %≤80%) | – | – | 20 to 30% | 60 to 80% |
| CC(C)(O)c1cc2nc(C3CCN(Cc4ccc5c(c4)CN(N4CCC(=O)NC4=O)C5=O)CC3)oc2cc1NC(=O)c1cccc(C(F)(F)F)n1 [GT-05748, N-(2-(1-((2-(2,4-dioxotetrahydropyrimidin-1(2H)-yl)-1-oxoisoindolin-5-yl)methyl)piperidin-4-yl)-5-(2-hydroxypropan-2-yl)benzo[d]oxazol-6-yl)-6-(trifluoromethyl) picolinamide] | A (0%≤substrate protein remaining %≤80%) | – | – | 10 to 20% | 60 to 80% |
| O=C1CCN(N2Cc3cc(CN4CCC(n5cc(NC(=O)c6cnn7ccc(N8CCOCC8)nc67)c(C(F)F)n5)CC4)ccc3C2=O)C(=O)N1 [GT-05749] | A (0%≤substrate protein remaining %≤80%) | – | – | 20 to 30% | 53 to 60% |
| N#Cc1ccc(O[C@H]2CC[C@H](NC(=O)c3ccc(N4CCC(CN5CC6CCC5CN6c5ccc6c(c5)C(=O)N(N5CCC(=O)NC5=O)C6=O)CC4)nn3)CC2)cc1Cl (stereo partly drawn) [GT-05832, N-((1r,4r)-4-(3-chloro-4-cyanophenoxy)cyclohexyl)-6-(4-((5-(2-(2,4-dioxotetrahydropyrimidin-1(2H)-yl)-1,3-dioxoisoindolin-5-yl)-2,5-diazabicyclo[2.2.2]octan-2-yl)methyl)piperidin-1-yl)pyridazine-3-carboxamide] | – | – | – | 30 to 40% | 40 to 53% |
| CC1(C)[C@H](NC(=O)c2ccc(N3CCC(CN4CC5CCC4CN5c4ccc5c(c4)C(=O)N(N4CCC(=O)NC4=O)C5=O)CC3)nc2)C(C)(C)[C@H]1Oc1ccc(C#N)c(Cl)c1 (stereo partly drawn) [GT-05834, N-((1r,3r)-3-(3-chloro-4-cyanophenoxy)-2,2,4,4-tetramethylcyclobutyl)-6-(4-((5-(2-(2,4-dioxotetrahydropyrimidin-1(2H)-yl)-1,3-dioxoisoindolin-5-yl)-2,5-diazabicyclo[2.2.2]octan-2-yl)methyl)piperidin-1-yl)nicotinamide] | – | – | – | 30 to 40% | 20 to 30% |
